The compounds below were run on HEL (assay: cell viability (% survival relative to DMSO control, bortezomib = 0%); higher = less cytotoxic). Settings: 100 nM; 72 h.
Outline: (§1)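 In 384-well plates pre-printed with compounds at 1, 10, 100, 1000 or 10000 nM, duplicate wells received cells from 10 AML and 5 CML lines at densities within the linear growth range. The plates stayed at 37 °C with 5% CO2 for 72 h before CellTiter-Glo luminescence was recorded. Each entry is averaged percent survival. Scaling placed vehicle at 100% and a 10 µM positive control at 0%.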
For `CCOP(=O)(OCC)C(=Cc1cc(C(C)(C)C)c(O)c(C(C)(C)C)c1)P(=O)(OCC)OCC`, the cell viability was 109%. In the case of `COc1ccc(-c2ccccc2)cc1NS(=O)(=O)c1cc(Cl)cc(Cl)c1O`, the cell viability is reported as 115%. With `C[C@H](NC(=O)c1sccc1OCc1ccc(Cl)cc1)c1ccccc1` the cell viability was 97.6%. With `O=C(O)c1cc(Cl)cc(Cl)c1O` [3,5-Dichlorosalicylic Acid] the cell viability was 98.6%. `O=C(O)C(=O)CBr` [3-bromopyruvic acid] was tested, and the cell viability was 92.2%. `NS(=O)(=O)c1ccc([N+](=O)[O-])cc1` [4-Nitrobenzenesulfonamide] gave a cell viability of 105%. Work on `Cc1ccccc1C(C(=O)NC1CCCCC1)N(C(=O)Cn1ccnc1C)c1cccc(F)c1` (stereo unspecified) [AGI-5198] yielded a cell viability of 106%. With `CC(C)(C#N)c1cc(Cn2cncn2)cc(C(C)(C)C#N)c1` [Anastrozole] the cell viability was 105%. Work on `O=C(O)C1=CC(=C(c2ccc(O)c(C(=O)O)c2)c2ccc(O)c(C(=O)O)c2)C=CC1=O` [Aurintricarboxylic acid] yielded a cell viability of 115%.

Same assay, conditions: 1000 nM; 72 h
`CN(C)C(=O)[C@H](O)[C@H](Cc1ccccc1)NC(=O)c1cc2cc(Cl)ccc2[nH]1` gave a cell viability of 112%. Work on `COc1ccc(CNC(=O)Nc2ncc([N+](=O)[O-])s2)cc1` yielded a cell viability of 108%. With `CCOP(=O)(OCC)C(=Cc1cc(C(C)(C)C)c(O)c(C(C)(C)C)c1)P(=O)(OCC)OCC` the cell viability was 89.8%. With `COc1ccc(-c2ccccc2)cc1NS(=O)(=O)c1cc(Cl)cc(Cl)c1O` the cell viability was 74%. For `C[C@H](NC(=O)c1sccc1OCc1ccc(Cl)cc1)c1ccccc1`, the cell viability was 97.5%. For `O=C(O)c1cc(Cl)cc(Cl)c1O` [3,5-Dichlorosalicylic Acid], the cell viability was 111%. `O=C(O)C(=O)CBr` [3-bromopyruvic acid] gave a cell viability of 96.2%. `NS(=O)(=O)c1ccc([N+](=O)[O-])cc1` [4-Nitrobenzenesulfonamide] showed a cell viability of 99.6%. `Cc1ccccc1C(C(=O)NC1CCCCC1)N(C(=O)Cn1ccnc1C)c1cccc(F)c1` (stereo unspecified) [AGI-5198] was tested, and the cell viability was 99.4%. `CC(C)(C#N)c1cc(Cn2cncn2)cc(C(C)(C)C#N)c1` [Anastrozole] showed a cell viability of 97.1%. Compound `O=C(O)C1=CC(=C(c2ccc(O)c(C(=O)O)c2)c2ccc(O)c(C(=O)O)c2)C=CC1=O` [Aurintricarboxylic acid] has a cell viability of 92.5%.

Same assay, conditions: 10000 nM; 72 h
In the case of `CN(C)C(=O)[C@H](O)[C@H](Cc1ccccc1)NC(=O)c1cc2cc(Cl)ccc2[nH]1`, the cell viability is reported as 88.1%. Compound `COc1ccc(CNC(=O)Nc2ncc([N+](=O)[O-])s2)cc1` has a cell viability of 109%. `CCOP(=O)(OCC)C(=Cc1cc(C(C)(C)C)c(O)c(C(C)(C)C)c1)P(=O)(OCC)OCC` was tested, and the cell viability was 108%. `COc1ccc(-c2ccccc2)cc1NS(=O)(=O)c1cc(Cl)cc(Cl)c1O` showed a cell viability of 95.3%. `C[C@H](NC(=O)c1sccc1OCc1ccc(Cl)cc1)c1ccccc1` gave a cell viability of 91.4%. With `O=C(O)c1cc(Cl)cc(Cl)c1O` [3,5-Dichlorosalicylic Acid] the cell viability was 104%. `O=C(O)C(=O)CBr` [3-bromopyruvic acid] was tested, and the cell viability was 112%. `NS(=O)(=O)c1ccc([N+](=O)[O-])cc1` [4-Nitrobenzenesulfonamide] gave a cell viability of 96.3%. Work on `Cc1ccccc1C(C(=O)NC1CCCCC1)N(C(=O)Cn1ccnc1C)c1cccc(F)c1` (stereo unspecified) [AGI-5198] yielded a cell viability of 101%. With `CC(C)(C#N)c1cc(Cn2cncn2)cc(C(C)(C)C#N)c1` [Anastrozole] the cell viability was 105%. With `O=C(O)C1=CC(=C(c2ccc(O)c(C(=O)O)c2)c2ccc(O)c(C(=O)O)c2)C=CC1=O` [Aurintricarboxylic acid] the cell viability was 21.8%.

These compounds were tested on THP-1 in the same assay as above. Settings: 1 nM; 72 h.
Outline: as §1
`CN(C)C(=O)[C@H](O)[C@H](Cc1ccccc1)NC(=O)c1cc2cc(Cl)ccc2[nH]1` gave a cell viability of 96.3%. For `COc1ccc(CNC(=O)Nc2ncc([N+](=O)[O-])s2)cc1`, the cell viability was 101%. `CCOP(=O)(OCC)C(=Cc1cc(C(C)(C)C)c(O)c(C(C)(C)C)c1)P(=O)(OCC)OCC` was tested, and the cell viability was 96.7%. With `COc1ccc(-c2ccccc2)cc1NS(=O)(=O)c1cc(Cl)cc(Cl)c1O` the cell viability was 101%. `C[C@H](NC(=O)c1sccc1OCc1ccc(Cl)cc1)c1ccccc1` showed a cell viability of 101%. `O=C(O)c1cc(Cl)cc(Cl)c1O` [3,5-Dichlorosalicylic Acid] gave a cell viability of 95.3%. For `O=C(O)C(=O)CBr` [3-bromopyruvic acid], the cell viability was 106%. `NS(=O)(=O)c1ccc([N+](=O)[O-])cc1` [4-Nitrobenzenesulfonamide] was tested, and the cell viability was 111%. `Cc1ccccc1C(C(=O)NC1CCCCC1)N(C(=O)Cn1ccnc1C)c1cccc(F)c1` (stereo unspecified) [AGI-5198] gave a cell viability of 96.9%. In the case of `CC(C)(C#N)c1cc(Cn2cncn2)cc(C(C)(C)C#N)c1` [Anastrozole], the cell viability is reported as 102%. `O=C(O)C1=CC(=C(c2ccc(O)c(C(=O)O)c2)c2ccc(O)c(C(=O)O)c2)C=CC1=O` [Aurintricarboxylic acid] gave a cell viability of 105%.

Same assay, conditions: 10 nM; 72 h
`CN(C)C(=O)[C@H](O)[C@H](Cc1ccccc1)NC(=O)c1cc2cc(Cl)ccc2[nH]1` was tested, and the cell viability was 95.8%. Work on `COc1ccc(CNC(=O)Nc2ncc([N+](=O)[O-])s2)cc1` yielded a cell viability of 101%. `CCOP(=O)(OCC)C(=Cc1cc(C(C)(C)C)c(O)c(C(C)(C)C)c1)P(=O)(OCC)OCC` gave a cell viability of 98.1%. Work on `COc1ccc(-c2ccccc2)cc1NS(=O)(=O)c1cc(Cl)cc(Cl)c1O` yielded a cell viability of 98.4%. `C[C@H](NC(=O)c1sccc1OCc1ccc(Cl)cc1)c1ccccc1` was tested, and the cell viability was 103%. `O=C(O)c1cc(Cl)cc(Cl)c1O` [3,5-Dichlorosalicylic Acid] gave a cell viability of 93.3%. `O=C(O)C(=O)CBr` [3-bromopyruvic acid] was tested, and the cell viability was 85%. `NS(=O)(=O)c1ccc([N+](=O)[O-])cc1` [4-Nitrobenzenesulfonamide] was tested, and the cell viability was 101%. `Cc1ccccc1C(C(=O)NC1CCCCC1)N(C(=O)Cn1ccnc1C)c1cccc(F)c1` (stereo unspecified) [AGI-5198] gave a cell viability of 100%. In the case of `CC(C)(C#N)c1cc(Cn2cncn2)cc(C(C)(C)C#N)c1` [Anastrozole], the cell viability is reported as 93.4%. `O=C(O)C1=CC(=C(c2ccc(O)c(C(=O)O)c2)c2ccc(O)c(C(=O)O)c2)C=CC1=O` [Aurintricarboxylic acid] gave a cell viability of 101%.

Same assay, conditions: 100 nM; 72 h
With `CN(C)C(=O)[C@H](O)[C@H](Cc1ccccc1)NC(=O)c1cc2cc(Cl)ccc2[nH]1` the cell viability was 103%. Compound `COc1ccc(CNC(=O)Nc2ncc([N+](=O)[O-])s2)cc1` has a cell viability of 104%. `CCOP(=O)(OCC)C(=Cc1cc(C(C)(C)C)c(O)c(C(C)(C)C)c1)P(=O)(OCC)OCC` was tested, and the cell viability was 115%. `COc1ccc(-c2ccccc2)cc1NS(=O)(=O)c1cc(Cl)cc(Cl)c1O` was tested, and the cell viability was 101%. `C[C@H](NC(=O)c1sccc1OCc1ccc(Cl)cc1)c1ccccc1` gave a cell viability of 99%. For `O=C(O)c1cc(Cl)cc(Cl)c1O` [3,5-Dichlorosalicylic Acid], the cell viability was 87.7%. Work on `O=C(O)C(=O)CBr` [3-bromopyruvic acid] yielded a cell viability of 105%. In the case of `NS(=O)(=O)c1ccc([N+](=O)[O-])cc1` [4-Nitrobenzenesulfonamide], the cell viability is reported as 100%.

Source: the supplement of paper PMC8671470
